Literature values, collected in patent publication US8106028B2, “MicroRNA-21 antagonists and its target PDCD4 for use in the treatment of a glioma” (Trustees of Dartmouth College, priority 2009, dated 2012).

Test system: PDCD4
Settings: breast cancer cells; Afonja, et al. (2004)

SMILES: CC1(C)CCC(C)(C)c2cc(C(=O)Nc3ccc(C(=O)O)cc3)ccc21 [Am580]
- expression of PDCD4: stimulate the expression of PDCD4
